Values of other authors, collected in paper PMC9963398, “Discovery of New Quinolone-Based Diarylamides as Potent B-RAF^V600E/C-RAF Kinase Inhibitors Endowed with Promising In Vitro Anticancer Activity” (International Journal of Molecular Sciences, 2023).

Tests used:
U251 = test system: U251; parameters: method as in PMID 32745753; details: U251, CNS cancer; cited from earlier work
SN12C = test system: SN12C; parameters: method as in PMID 32745753; details: Renal cancer; cited from earlier work
SR = test system: SR; parameters: method as in PMID 32745753; details: Leukemia; cited from earlier work
BT-549 = test system: BT-549; parameters: method as in PMID 32745753; details: BT-549, Breast cancer; cited from earlier work
SNB-19 = test system: SNB-19; parameters: method as in PMID 32745753; details: SNB-19, CNS cancer; cited from earlier work
MALME-3M = test system: MALME-3M; parameters: method as in PMID 32745753; details: Melanoma; cited from earlier work
SK-MEL-28 = test system: SK-MEL-28; parameters: method as in PMID 32745753; details: SK-MEL-28, Melanoma; cited from earlier work
UO-31 = test system: UO-31; parameters: method as in PMID 32745753; details: UO-31, Renal cancer; cited from earlier work
PC-3 = details: PC-3, Prostate cancer; cited from earlier work
UACC-257 = test system: UACC-257; parameters: method as in PMID 32745753; details: UACC-257, Melanoma; cited from earlier work
SF-295 = test system: SF-295; parameters: method as in PMID 32745753; details: SF-295, CNS cancer; cited from earlier work
RPMI-8226 = test system: RPMI-8226; parameters: method as in PMID 32745753; details: RPMI-8226, Leukemia; cited from earlier work
UACC-62 = test system: UACC-62; parameters: method as in PMID 32745753; details: UACC-62, Melanoma; cited from earlier work

CNC(=O)c1cc(Oc2ccc(NC(=O)Nc3ccc(Cl)c(C(F)(F)F)c3)cc2)ccn1 [Sorafenib]
GI50 (U251): 2100 nM
GI50 (SN12C): 2400 nM
GI50 (SR): 3100 nM
GI50 (BT-549): 3300 nM
GI50 (SNB-19): 3400 nM
GI50 (MALME-3M): 2200 nM
GI50 (SK-MEL-28): 2600 nM
GI50 (UO-31): 2600 nM
GI50 (PC-3): 2000 nM
GI50 (UACC-257): 2200 nM
GI50 (SF-295): 1600 nM
GI50 (RPMI-8226): 1500 nM
GI50 (UACC-62): 1700 nM
